Test results: patent publication US20230322747A1, “OXADIAZOLE HDAC6 INHIBITORS AND USES THEREOF” (Eikonizo Therapeutics, Inc., priority 2022, published 2023)

Experiments:
[1] = target: Human HDAC6 (Homo sapiens (Human), UniProt Q9UBN7); experiment: HDAC6 enzymatic activity assay (Caliper endpoint or fluorogenic format); format: biochemical; conditions: for IC50: in vitro enzymatic; for Selectivity (6 v 8) (fold): ratio of HDAC8 IC50/HDAC6 IC50
[2] = target: Human HDAC8 (Homo sapiens (Human), UniProt Q9BY41); experiment: Caliper endpoint assay for HDAC8 enzymatic activity; format: biochemical; conditions: in vitro enzymatic
Chain of Human HDAC8 (Q9BY41 whole entry): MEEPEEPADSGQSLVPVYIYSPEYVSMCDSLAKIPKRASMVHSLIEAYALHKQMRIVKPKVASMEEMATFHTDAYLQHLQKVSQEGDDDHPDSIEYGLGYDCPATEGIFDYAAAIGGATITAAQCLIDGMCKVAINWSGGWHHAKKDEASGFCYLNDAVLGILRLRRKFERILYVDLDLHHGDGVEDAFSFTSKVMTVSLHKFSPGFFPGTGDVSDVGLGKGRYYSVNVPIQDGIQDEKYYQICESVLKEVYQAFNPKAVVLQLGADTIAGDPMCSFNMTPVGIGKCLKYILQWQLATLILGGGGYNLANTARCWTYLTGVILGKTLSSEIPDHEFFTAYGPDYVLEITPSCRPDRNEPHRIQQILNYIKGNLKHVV

Chain of Human HDAC6 (Q9UBN7 whole entry): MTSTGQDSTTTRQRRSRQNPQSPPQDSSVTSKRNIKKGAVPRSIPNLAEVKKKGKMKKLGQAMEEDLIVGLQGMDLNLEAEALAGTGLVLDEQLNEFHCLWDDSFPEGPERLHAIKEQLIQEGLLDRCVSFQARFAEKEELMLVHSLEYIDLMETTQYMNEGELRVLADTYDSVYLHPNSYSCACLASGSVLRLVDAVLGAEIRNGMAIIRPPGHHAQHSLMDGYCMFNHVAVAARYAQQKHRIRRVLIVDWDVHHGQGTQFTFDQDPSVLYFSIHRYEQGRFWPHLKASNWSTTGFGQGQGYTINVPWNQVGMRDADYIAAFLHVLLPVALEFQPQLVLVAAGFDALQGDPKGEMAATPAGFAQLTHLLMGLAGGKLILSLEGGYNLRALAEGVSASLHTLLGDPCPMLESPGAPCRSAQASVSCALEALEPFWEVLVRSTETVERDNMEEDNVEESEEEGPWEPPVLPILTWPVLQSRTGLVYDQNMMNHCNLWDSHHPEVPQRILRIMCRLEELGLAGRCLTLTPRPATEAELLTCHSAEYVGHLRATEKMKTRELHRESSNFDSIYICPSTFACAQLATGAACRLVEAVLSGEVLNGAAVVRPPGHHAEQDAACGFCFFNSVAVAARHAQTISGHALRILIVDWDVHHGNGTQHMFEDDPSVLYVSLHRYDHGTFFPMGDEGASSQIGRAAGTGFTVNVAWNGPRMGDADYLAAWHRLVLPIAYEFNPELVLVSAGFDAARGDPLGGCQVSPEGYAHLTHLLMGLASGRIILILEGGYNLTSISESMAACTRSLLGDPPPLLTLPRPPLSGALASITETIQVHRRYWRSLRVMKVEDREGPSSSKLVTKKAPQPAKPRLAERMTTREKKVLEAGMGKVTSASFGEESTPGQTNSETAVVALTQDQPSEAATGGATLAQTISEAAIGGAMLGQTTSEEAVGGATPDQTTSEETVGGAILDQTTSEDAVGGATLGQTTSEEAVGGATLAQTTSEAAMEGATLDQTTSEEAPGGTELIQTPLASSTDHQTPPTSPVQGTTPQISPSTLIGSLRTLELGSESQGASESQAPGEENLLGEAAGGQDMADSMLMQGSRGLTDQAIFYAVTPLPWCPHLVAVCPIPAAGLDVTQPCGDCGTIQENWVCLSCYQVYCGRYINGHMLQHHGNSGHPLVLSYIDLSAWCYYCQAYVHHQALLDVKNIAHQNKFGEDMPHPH

| IC50 [1] | Selectivity (6 v 8) (fold) [1] | IC50 [2] | SMILES |
| --- | --- | --- | --- |
| 1 to 100 nM | V (V: >1000) | > 100000 nM | Fc1cncc(OCc2ccc(-c3nnc(C(F)F)o3)cn2)c1 [Compound 19, 2-(Difluoromethyl)-5-(6-(((5-fluoropyridin-3-yl)oxy)methyl)pyridin-3-yl)-1,3,4-oxadiazole] |
| 1 to 100 nM | V (V: >1000) | > 100000 nM | N#Cc1cccc(OCc2ccc(-c3nnc(C(F)F)o3)cn2)c1 [Compound 26] |
| 1 to 100 nM | V (V: >1000) | > 100000 nM | FC(F)c1nnc(-c2ccc(COc3cccc4ocnc34)nc2)o1 [Compound 28] |
| 1 to 100 nM | IV (IV: >100-1000) | 1000 to 10000 nM | FC(F)c1nnc(-c2ccc(COc3ccc4ccncc4c3)nc2)o1 [Compound 31] |
| 1 to 100 nM | IV (IV: >100-1000) | 10000 to 100000 nM | N#CCc1ccc(OCc2ccc(-c3nnc(C(F)F)o3)cn2)cc1 [Compound 43] |
| 1 to 100 nM | V (V: >1000) | 10000 to 100000 nM | N#Cc1ccc(OCc2ccc(-c3nnc(C(F)F)o3)cn2)c(F)c1 [Compound 47] |
| 1 to 100 nM | V (V: >1000) | > 100000 nM | N#Cc1cccc(F)c1OCc1ccc(-c2nnc(C(F)F)o2)cn1 [Compound 48] |
| 1 to 100 nM | IV (IV: >100-1000) | 10000 to 100000 nM | N#Cc1ccc(F)c(OCc2ccc(-c3nnc(C(F)F)o3)cn2)c1 [Compound 49] |
| 1 to 100 nM | V (V: >1000) | > 100000 nM | N#Cc1ccc(F)cc1OCc1ccc(-c2nnc(C(F)F)o2)cn1 [Compound 50] |
| 1 to 100 nM | V (V: >1000) | > 100000 nM | N#Cc1ccc(OCc2ccc(-c3nnc(C(F)F)o3)cn2)cc1F [Compound 52] |
| 1 to 100 nM | V (V: >1000) | > 100000 nM | FC(F)c1nnc(-c2ccc(COc3cccc4nccnc34)nc2)o1 [Compound 55] |
| 1 to 100 nM | IV (IV: >100-1000) | 10000 to 100000 nM | Cn1cnc2cc(OCc3ccc(-c4nnc(C(F)F)o4)cn3)ccc21 [Compound 57] |
| 1 to 100 nM | V (V: >1000) | 10000 to 100000 nM | Cc1noc2cccc(OCc3ccc(-c4nnc(C(F)F)o4)cn3)c12 [Compound 60] |
| 100 to 1000 nM | V (V: >1000) | > 100000 nM | FC(F)c1nnc(-c2ccc(COc3ccon3)nc2)o1 [Compound 64] |
| 100 to 1000 nM | V (V: >1000) | > 100000 nM | Cn1cc(OCc2ccc(-c3nnc(C(F)F)o3)cn2)cn1 [Compound 65] |
| 100 to 1000 nM | IV (IV: >100-1000) | 10000 to 100000 nM | CCn1ccc(OCc2ccc(-c3nnc(C(F)F)o3)cn2)n1 [Compound 69] |
| 100 to 1000 nM | V (V: >1000) | > 100000 nM | Cc1cccnc1OCc1ccc(-c2nnc(C(F)F)o2)cn1 [Compound 73] |
| 1 to 100 nM | V (V: >1000) | > 100000 nM | Cc1cc(OCc2ccc(-c3nnc(C(F)F)o3)cn2)ccn1 [Compound 74] |
| 1 to 100 nM | V (V: >1000) | > 100000 nM | Fc1ccc(OCc2ccc(-c3nnc(C(F)F)o3)cn2)nc1 [Compound 76] |
| 1 to 100 nM | V (V: >1000) | > 100000 nM | CC(C)n1ccc(OCc2ccc(-c3nnc(C(F)F)o3)cn2)n1 [Compound 79] |

Further lines, the molecule ahead of its results:

| SMILES | IC50 [1] | Selectivity (6 v 8) (fold) [1] | IC50 [2] |
| --- | --- | --- | --- |
| FC(F)c1nnc(-c2ccc(COc3ccncc3)nc2)o1 [Compound 18, 2-(difluoromethyl)-5-(6-((pyridin-4-yloxy)methyl)pyridin-3-yl)-1,3,4-oxadiazole] | 1 to 100 nM | V (V: >1000) | > 100000 nM |
| FC(F)c1nnc(-c2ccc(COCC34CC5CC(CC(C5)O3)C4)nc2)o1 [Compound 20, 2-(6-(((2-oxaadamantan-1-yl)methoxy)methyl)pyridin-3-yl)-5-(difluoromethyl)-1,3,4-oxadiazole] | 1 to 100 nM | V (V: >1000) | > 100000 nM |
| N#CCc1cccc(OCc2ccc(-c3nnc(C(F)F)o3)cn2)c1 [Compound 27] | 1 to 100 nM | V (V: >1000) | > 100000 nM |
| N#Cc1c(F)cccc1OCc1ccc(-c2nnc(C(F)F)o2)cn1 [Compound 29] | 1 to 100 nM | IV (IV: >100-1000) | 10000 to 100000 nM |
| N#Cc1cc(OCc2ccc(-c3nnc(C(F)F)o3)cn2)ccc1F [Compound 30] | 1 to 100 nM | V (V: >1000) | > 100000 nM |
| FC(F)c1nnc(-c2ccc(COc3ccc4cnccc4c3)nc2)o1 [Compound 32] | 1 to 100 nM | V (V: >1000) | 10000 to 100000 nM |
| FC(F)c1nnc(-c2ccc(COc3cccc4cnccc34)nc2)o1 [Compound 35] | 1 to 100 nM | V (V: >1000) | > 100000 nM |
| FC(F)c1nnc(-c2ccc(COc3ccc4nccnc4c3)nc2)o1 [Compound 36] | 1 to 100 nM | V (V: >1000) | > 100000 nM |
| Cn1ncc2cc(OCc3ccc(-c4nnc(C(F)F)o4)cn3)ccc21 [Compound 37] | 1 to 100 nM | V (V: >1000) | 10000 to 100000 nM |
| C#Cc1cccc(OCc2ccc(-c3nnc(C(F)F)o3)cn2)c1 [Compound 39] | 1 to 100 nM | V (V: >1000) | > 100000 nM |
| C#Cc1ccccc1OCc1ccc(-c2nnc(C(F)F)o2)cn1 [Compound 41] | 1 to 100 nM | V (V: >1000) | > 100000 nM |
| N#Cc1ccccc1OCc1ccc(-c2nnc(C(F)F)o2)cn1 [Compound 42] | 1 to 100 nM | V (V: >1000) | > 100000 nM |
| N#CCc1ccccc1OCc1ccc(-c2nnc(C(F)F)o2)cn1 [Compound 44] | 1 to 100 nM | V (V: >1000) | > 100000 nM |
| N#Cc1cc(F)ccc1OCc1ccc(-c2nnc(C(F)F)o2)cn1 [Compound 45] | 1 to 100 nM | V (V: >1000) | > 100000 nM |
| N#Cc1cccc(OCc2ccc(-c3nnc(C(F)F)o3)cn2)c1F [Compound 46] | 1 to 100 nM | V (V: >1000) | > 100000 nM |
| N#Cc1cc(F)cc(OCc2ccc(-c3nnc(C(F)F)o3)cn2)c1 [Compound 51] | 1 to 100 nM | V (V: >1000) | > 100000 nM |
| FC(F)c1nnc(-c2ccc(COc3ccc4ocnc4c3)nc2)o1 [Compound 53] | 1 to 100 nM | V (V: >1000) | > 100000 nM |

| SMILES | IC50 [1] | Selectivity (6 v 8) (fold) [1] | IC50 [2] |
| --- | --- | --- | --- |
| FC(F)c1nnc(-c2ccc(COc3ccc4c(c3)CCCC4)nc2)o1 [Compound 54] | 1 to 100 nM | V (V: >1000) | > 100000 nM |
| FC(F)c1nnc(-c2ccc(COc3cccc4cncnc34)nc2)o1 [Compound 56] | 1 to 100 nM | V (V: >1000) | > 100000 nM |
| Cn1ncc2c(OCc3ccc(-c4nnc(C(F)F)o4)cn3)cccc21 [Compound 58] | 1 to 100 nM | V (V: >1000) | > 100000 nM |
| Cc1noc2cc(OCc3ccc(-c4nnc(C(F)F)o4)cn3)ccc12 [Compound 59] | 1 to 100 nM | V (V: >1000) | > 100000 nM |
| Cc1nc2cc(OCc3ccc(-c4nnc(C(F)F)o4)cn3)ccc2o1 [Compound 61] | 1 to 100 nM | IV (IV: >100-1000) | 10000 to 100000 nM |
| FC(F)c1nnc(-c2ccc(COc3ccc4ncccc4c3)nc2)o1 [Compound 62] | 1 to 100 nM | V (V: >1000) | 10000 to 100000 nM |
| Cn1nccc1OCc1ccc(-c2nnc(C(F)F)o2)cn1 [Compound 67] | 100 to 1000 nM | V (V: >1000) | > 100000 nM |
| FC(F)c1nnc(-c2ccc(COc3cnccn3)nc2)o1 [Compound 68] | 100 to 1000 nM | V (V: >1000) | > 100000 nM |
| Cc1ccc(OCc2ccc(-c3nnc(C(F)F)o3)cn2)cn1 [Compound 70] | 100 to 1000 nM | V (V: >1000) | > 100000 nM |
| Cc1ccnc(OCc2ccc(-c3nnc(C(F)F)o3)cn2)c1 [Compound 71] | 1 to 100 nM | V (V: >1000) | > 100000 nM |
| Cc1cccc(OCc2ccc(-c3nnc(C(F)F)o3)cn2)n1 [Compound 72] | 100 to 1000 nM | V (V: >1000) | > 100000 nM |
| Cc1cnccc1OCc1ccc(-c2nnc(C(F)F)o2)cn1 [Compound 75] | 1 to 100 nM | IV (IV: >100-1000) | 10000 to 100000 nM |
| Fc1cccnc1OCc1ccc(-c2nnc(C(F)F)o2)cn1 [Compound 77, 2-(Difluoromethyl)-5-[6-[(3-fluoro-2-pyridyl)oxymethyl]-3-pyridyl]-1,3,4-oxadiazole] | 1 to 100 nM | V (V: >1000) | > 100000 nM |
| Cc1nc(Cl)cc(OCc2ccc(-c3nnc(C(F)F)o3)cn2)n1 [Compound 80] | 1 to 100 nM | III (III: >10-100) | 1000 to 10000 nM |
| FC(F)c1nnc(-c2ccc(COc3cccn4ccnc34)nc2)o1 [Compound 82] | 1 to 100 nM | V (V: >1000) | > 100000 nM |
| FC(F)c1nnc(-c2ccc(COc3ccc(C4CC4)nn3)nc2)o1 [Compound 83] | 100 to 1000 nM | IV (IV: >100-1000) | 10000 to 100000 nM |
| FC(F)c1nnc(-c2ccc(COc3ccc(C4CC4)cn3)nc2)o1 [Compound 85, 2-[6-[(5-cyclopropyl-2-pyridyl)oxymethyl]-3-pyridyl]-5-(difluoromethyl)-1,3,4-oxadiazole] | 100 to 1000 nM | V (V: >1000) | > 100000 nM |
